Data from paper PMC12491243, “Rational design of indoleamine 2,3-dioxygenase 1 (IDO1) inhibitors featuring 1,2,3-triazole derivatives with enhanced anti-inflammatory and analgesic efficacy” (Frontiers in Pharmacology, 2025).

Assays:
Format in all cases: in vivo
[1] = system: CFA-induced inflammatory pain model; assay: CFA-induced mechanical allodynia, von Frey paw withdrawal frequency; conditions: CFA mice, 30 mg/kg i.p., 0.07 g and 0.4 g von Frey filaments, ipsilateral side, 12 to 72 h post-CFA
Description: To evaluate the analgesic effects of Compound 14e in vivo, we established an inflammatory pain model using intraplantar injection of CFA. Compound 14e (30 mg/kg) was administered intraperitoneally at 6 h, with subsequent doses at 48 and 72 h after CFA injection. Behavioral assessments, including von Frey testing for mechanical allodynia and heat stimuli for thermal hyperalgesia, were conducted on the injected hind paw at baseline (BL), as well as at 6, 12, 18, 24, 48 and 72 h post-CFA injection. Additionally, flinching and guarding behaviors, indicators of spontaneous pain, were evaluated 72 h after CFA injection. […] (A,B) Evaluation of CFA-induced mechanical allodynia as assessed by withdrawal frequency to 0.07 g (A) and 0.4 g (B) von Frey filaments in mice repetitive treated with 10% DMSO or compound 14e. […] The dosage of compound 14e was determined based on our preliminary experiments. Mechanical hypersensitivity was assessed by measuring paw withdrawal frequency (PWF) as described previously in our reports ([Ma et al., 2021]; [Pan et al., 2021]). The PWF in response to mechanical stimulus was determined using two calibrated von Frey filaments (0.07 and 0.4 g, North Coast Medical Inc., Gilroy, United States). […] The PWF was calculated based on the number of positive responses from the 10 applications ([number of paw withdrawals/10 trials] × 100 = % response frequency).

[2] = system: CFA-induced inflammatory pain model; assay: CFA-induced spontaneous pain, flinching and guarding behaviors; conditions: CFA mice, 30 mg/kg i.p. repeated, 72 h post-CFA
Description: To evaluate the analgesic effects of Compound 14e in vivo, we established an inflammatory pain model using intraplantar injection of CFA. Compound 14e (30 mg/kg) was administered intraperitoneally at 6 h, with subsequent doses at 48 and 72 h after CFA injection. Behavioral assessments, including von Frey testing for mechanical allodynia and heat stimuli for thermal hyperalgesia, were conducted on the injected hind paw at baseline (BL), as well as at 6, 12, 18, 24, 48 and 72 h post-CFA injection. Additionally, flinching and guarding behaviors, indicators of spontaneous pain, were evaluated 72 h after CFA injection. […] (A,B) Evaluation of CFA-induced mechanical allodynia as assessed by withdrawal frequency to 0.07 g (A) and 0.4 g (B) von Frey filaments in mice repetitive treated with 10% DMSO or compound 14e. (C) Assessment of CFA-induced thermal hyperalgesia in the latency in mice treated with 10% DMSO or compound 14e. […] The dosage of compound 14e was determined based on our preliminary experiments. Spontaneous nociceptive behavior was recorded in previous studies ([Liu et al., 2023]; [Yang et al., 2018]) Mice were placed in the Plexiglas chamber and allowed to habituate for 30 min. Following acclimatization, the number of flinches and the time spent on guarding behaviors were analyzed for 10 min. […]

IL-1β = assay: ELISA of IL-1β in inflamed paw, spinal cord and serum of CFA mice; conditions: ipsilateral L4–L6 spinal cord and serum, 72 h after CFA
Text: To determine whether the analgesic effects of Compound 14e are associated with reduced local and systemic inflammation, we measured the levels of inflammatory factors in the inflamed paw tissue, ipsilateral L4–L6 spinal cord, and peripheral blood. The results indicated a significant increase in the protein levels of TNF-α and IL-1β in the inflamed paw, spinal cord, and serum of mice in the CFA group compared to the vehicle group.
FIGURE 6 Compound 14e reduces TNF-α and IL-1β in the inflamed hindpaw skin, spinal cord and peripheral blood 72 h after CFA-induced inflammation. (A,D) Expression levels of TNF-α and IL-1β in the inflamed skin tissue. (B,E) Expression levels of TNF-α and IL-1β in ipsilateral L4–6 spinal cord. […]
Under anesthesia with 1% pentobarbital sodium, serum was obtained from the mice orbits, after coagulation at room temperature for 2 h, the sample was then centrifuged at 1,000 × g for 20 min at 4 °C, with the supernatant collected. […] The protein concentrations were determined using a bicinchoninic acid (BCA) kit (Pierce Biotechnology Inc.). The following inflammatory factors were measured using Mouse TNF-α ELISA kit (EM0183) and IL-1β ELISA kit (EM0109) obtained from Wuhan Fine Biotechnology Company, according to the product protocols. The O.D. absorbance at 450 nm was quantified in a ultramicroplate spectrophotometer (BioTek Epoch).

## O=C1COc2ccc(NC(=O)c3cccc(-c4cn(Cc5c(F)cccc5Cl)nn4)c3)cc2N1 [Compound 14e]
[1]
  mechanical allodynia, paw withdrawal frequency (PWF): significantly alleviated
[2]
  spontaneous pain behaviors (flinching and guarding): significantly reduced
IL-1β
  CFA-induced levels of IL-1β: significantly decreased
